{
  "source": "ChEMBL document CHEMBL3621157",
  "about": "“Design, synthesis and biological evaluation of novel 1,2,4-triazolo and 1,2,4-triazino[4,3-a]quinoxalines as potential anticancer and antimicrobial agents” (2015)",
  "type_in_all_cases": "functional",
  "key": {"[1]": {"system": "PC-3", "assay": "Growth inhibition of human PC3 cells incubated for 48 hrs by sulforhodamine B assay", "settings": "PC-3, 48 h"}, "[2]": {"system": "DU-145", "assay": "Growth inhibition of human DU145 cells incubated for 48 hrs by sulforhodamine B assay", "settings": "DU-145, 48 h"}, "[3]": {"system": "MCF7", "assay": "Growth inhibition of human MCF7 cells incubated for 48 hrs by sulforhodamine B assay", "settings": "MCF7, 48 h"}, "[4]": {"system": "MDA-MB-231", "assay": "Growth inhibition of human MDA-MB-231 cells incubated for 48 hrs by sulforhodamine B assay", "settings": "MDA-MB-231, 48 h"}, "[5]": {"system": "T47D", "assay": "Growth inhibition of human T47D cells incubated for 48 hrs by sulforhodamine B assay"}, "[6]": {"system": "MDA-MB-468", "assay": "Growth inhibition of human MDA-MB-468 cells incubated for 48 hrs by sulforhodamine B assay", "settings": "MDA-MB-468, 48 h"}, "[7]": {"system": "Bacillus subtilis", "assay": "Antimicrobial activity against Bacillus subtilis ATCC 6633 incubated at 37 degC for 24 hrs by cup diffusion method"}, "[8]": {"system": "Escherichia coli", "assay": "Antimicrobial activity against Escherichia coli ATCC 11775 incubated at 37 degC for 24 hrs by cup diffusion method"}, "[9]": {"system": "Candida albicans", "assay": "Antimicrobial activity against Candida albicans DSM 70014 incubated at 37 degC for 48 hrs by cup diffusion method"}, "[10]": {"system": "Staphylococcus aureus", "assay": "Antimicrobial activity against Staphylococcus aureus DSM 1104 incubated for 24 hrs by two-fold serial broth dilution method", "settings": "DSM 1104, 24 h"}, "[11]": {"system": "Staphylococcus aureus", "assay": "Antimicrobial activity against Staphylococcus aureus DSM 1104 incubated for 24 hrs followed by transfer of colonies to Muller-Hinton agar plate and measured after 18 hrs by two-fold serial broth dilution method"}, "[12]": {"system": "Bacillus subtilis", "assay": "Antimicrobial activity against Bacillus subtilis ATCC 6633 incubated for 24 hrs followed by transfer of colonies to Muller-Hinton agar plate and measured after 18 hrs by two-fold serial broth dilution method"}, "[13]": {"system": "Escherichia coli", "assay": "Antimicrobial activity against Escherichia coli ATCC 11775 incubated for 24 hrs followed by transfer of colonies to Muller-Hinton agar plate and measured after 18 hrs by two-fold serial broth dilution method"}, "[14]": {"system": "Candida albicans", "assay": "Antimicrobial activity against Candida albicans DSM 70014 incubated for 48 hrs by two-fold serial broth dilution method", "settings": "DSM 70014, 48 h"}, "[15]": {"system": "Candida albicans", "assay": "Antimicrobial activity against Candida albicans DSM 70014 incubated for 48 hrs followed by transfer of colonies to Muller-Hinton agar plate and measured after 18 hrs by two-fold serial broth dilution method"}, "[16]": {"assay": "Growth inhibition of human HOP92 cells at 10 uM incubated for 48 hrs by sulforhodamine B assay", "settings": "HOP-92, 48 h, read-out: GI"}, "[17]": {"system": "HL-60(TB)", "assay": "Growth inhibition of human HL-60(TB) cells at 10 uM incubated for 48 hrs by sulforhodamine B assay", "settings": "HL-60, 48 h, read-out: GI"}, "[18]": {"system": "K562", "assay": "Growth inhibition of human K562 cells at 10 uM incubated for 48 hrs by sulforhodamine B assay", "settings": "K562, 48 h, read-out: GI"}, "[19]": {"assay": "Growth inhibition of human MOLT4 cells at 10 uM incubated for 48 hrs by sulforhodamine B assay", "settings": "MOLT-4, 48 h, read-out: GI"}, "[20]": {"assay": "Growth inhibition of human EKVX cells at 10 uM incubated for 48 hrs by sulforhodamine B assay", "settings": "read-out: GI"}, "[21]": {"system": "NCI-H460", "assay": "Growth inhibition of human NCI-H460 cells at 10 uM incubated for 48 hrs by sulforhodamine B assay", "settings": "NCI-H460, 48 h, read-out: GI"}, "[22]": {"system": "HCT-116", "assay": "Growth inhibition of human HCT116 cells at 10 uM incubated for 48 hrs by sulforhodamine B assay", "settings": "HCT-116, 48 h, read-out: GI"}, "[23]": {"system": "U-251", "assay": "Growth inhibition of human U251 cells at 10 uM incubated for 48 hrs by sulforhodamine B assay", "settings": "U-251, 48 h, read-out: GI"}, "[24]": {"system": "A498", "assay": "Growth inhibition of human A498 cells at 10 uM incubated for 48 hrs by sulforhodamine B assay", "settings": "A498, 48 h, read-out: GI"}, "[25]": {"system": "CCRF-CEM", "assay": "Growth inhibition of human CCRF-CEM cells incubated for 48 hrs by sulforhodamine B assay"}, "[26]": {"system": "HL-60(TB)", "assay": "Growth inhibition of human HL-60(TB) cells incubated for 48 hrs by sulforhodamine B assay", "settings": "HL-60, 48 h"}, "[27]": {"assay": "Growth inhibition of human MOLT4 cells incubated for 48 hrs by sulforhodamine B assay", "settings": "MOLT-4, 48 h"}, "[28]": {"system": "SR", "assay": "Growth inhibition of human SR cells incubated for 48 hrs by sulforhodamine B assay"}, "[29]": {"system": "A549", "assay": "Growth inhibition of human A549 cells incubated for 48 hrs by sulforhodamine B assay", "settings": "A549, 48 h"}, "[30]": {"system": "NCI-H226", "assay": "Growth inhibition of human NCI-H226 cells incubated for 48 hrs by sulforhodamine B assay", "settings": "NCI-H226, 48 h"}, "[31]": {"system": "NCI-H322M", "assay": "Growth inhibition of human NCI-H322M cells incubated for 48 hrs by sulforhodamine B assay"}, "[32]": {"system": "NCI-H460", "assay": "Growth inhibition of human NCI-H460 cells incubated for 48 hrs by sulforhodamine B assay", "settings": "NCI-H460, 48 h"}, "[33]": {"assay": "Growth inhibition of human COLO205 cells incubated for 48 hrs by sulforhodamine B assay", "settings": "COLO 205, 48 h"}, "[34]": {"assay": "Growth inhibition of human HCC2998 cells incubated for 48 hrs by sulforhodamine B assay", "settings": "HCC 2998, 48 h"}, "[35]": {"system": "HCT-15", "assay": "Growth inhibition of human HCT15 cells incubated for 48 hrs by sulforhodamine B assay", "settings": "HCT-15, 48 h"}, "[36]": {"system": "U-251", "assay": "Growth inhibition of human U251 cells incubated for 48 hrs by sulforhodamine B assay", "settings": "U-251, 48 h"}, "[37]": {"system": "Malme-3M", "assay": "Growth inhibition of human MALME-3M cells incubated for 48 hrs by sulforhodamine B assay"}, "[38]": {"system": "M14", "assay": "Growth inhibition of human M14 cells incubated for 48 hrs by sulforhodamine B assay", "settings": "M14, 48 h"}, "[39]": {"system": "SK-MEL-5", "assay": "Growth inhibition of human SK-MEL-5 cells incubated for 48 hrs by sulforhodamine B assay", "settings": "SK-MEL-5, 48 h"}, "[40]": {"system": "UACC-257", "assay": "Growth inhibition of human UACC257 cells incubated for 48 hrs by sulforhodamine B assay", "settings": "UACC-257, 48 h"}, "[41]": {"system": "IGROV-1", "assay": "Growth inhibition of human IGROV1 cells incubated for 48 hrs by sulforhodamine B assay", "settings": "IGROV-1, 48 h"}, "[42]": {"system": "OVCAR-3", "assay": "Growth inhibition of human OVCAR3 cells incubated for 48 hrs by sulforhodamine B assay", "settings": "OVCAR-3, 48 h"}, "[43]": {"system": "OVCAR-8", "assay": "Growth inhibition of human OVCAR8 cells incubated for 48 hrs by sulforhodamine B assay", "settings": "OVCAR-8, 48 h"}, "[44]": {"assay": "Growth inhibition of human NCI-ADR-RES cells incubated for 48 hrs by sulforhodamine B assay"}, "[45]": {"system": "ACHN", "assay": "Growth inhibition of human ACHN cells incubated for 48 hrs by sulforhodamine B assay"}, "[46]": {"system": "CAKI-1", "assay": "Growth inhibition of human CAKI-1 cells incubated for 48 hrs by sulforhodamine B assay", "settings": "CAKI-1, 48 h"}},
  "data": [
    {"smiles": "Clc1ccccc1-c1nnc2c(Cc3ccccc3)nc3ccccc3n12", "values": [
      {"measurement": "GI50", "setting": "[1]", "value": 5.19, "unit": "µM"},
      {"measurement": "GI50", "setting": "[2]", "value": 44.2, "unit": "µM"},
      {"measurement": "GI50", "setting": "[3]", "value": 22.2, "unit": "µM"},
      {"measurement": "GI50", "setting": "[4]", "value": 6.24, "unit": "µM"},
      {"measurement": "GI50", "setting": "[5]", "value": 6.82, "unit": "µM"},
      {"measurement": "GI50", "setting": "[6]", "value": 5.55, "unit": "µM"},
      {"measurement": "inhibition zone (IZ)", "setting": "[7]", "value": 12, "unit": "mm"},
      {"measurement": "inhibition zone (IZ)", "setting": "[8]", "value": 10, "unit": "mm"},
      {"measurement": "inhibition zone (IZ)", "setting": "[9]", "value": 16, "unit": "mm"},
      {"measurement": "MIC", "setting": "[10]", "value": 100, "unit": "µg/mL"},
      {"measurement": "MBC", "setting": "[11]", "value": 200, "unit": "µg/mL"},
      {"measurement": "MBC", "setting": "[12]", "value": 50, "unit": "µg/mL"},
      {"measurement": "MBC", "setting": "[13]", "value": 50, "unit": "µg/mL"},
      {"measurement": "MIC", "setting": "[14]", "value": 100, "unit": "µg/mL"},
      {"measurement": "MFC", "setting": "[15]", "value": 200, "unit": "µg/mL"},
      {"measurement": "inhibition of growth at 10 µM", "setting": "[16]", "value": 50.1, "unit": "%"},
      {"measurement": "inhibition of growth at 10 µM", "setting": "[17]", "value": 46.4, "unit": "%"},
      {"measurement": "inhibition of growth at 10 µM", "setting": "[18]", "value": 78.6, "unit": "%"},
      {"measurement": "inhibition of growth at 10 µM", "setting": "[19]", "value": 60.4, "unit": "%"},
      {"measurement": "inhibition of growth at 10 µM", "setting": "[20]", "value": 48.1, "unit": "%"},
      {"measurement": "inhibition of growth at 10 µM", "setting": "[21]", "value": 84.4, "unit": "%"},
      {"measurement": "inhibition of growth at 10 µM", "setting": "[22]", "value": 65.9, "unit": "%"},
      {"measurement": "inhibition of growth at 10 µM", "setting": "[23]", "value": 57.2, "unit": "%"},
      {"measurement": "inhibition of growth at 10 µM", "setting": "[24]", "value": 61.1, "unit": "%"},
      {"measurement": "GI50", "setting": "[25]", "value": 7.11, "unit": "µM"},
      {"measurement": "GI50", "setting": "[26]", "value": 32.5, "unit": "µM"},
      {"measurement": "GI50", "setting": "[27]", "value": 9.04, "unit": "µM"},
      {"measurement": "GI50", "setting": "[28]", "value": 3.91, "unit": "µM"},
      {"measurement": "GI50", "setting": "[29]", "value": 8.77, "unit": "µM"},
      {"measurement": "GI50", "setting": "[30]", "value": 9.96, "unit": "µM"},
      {"measurement": "GI50", "setting": "[31]", "value": 53.9, "unit": "µM"},
      {"measurement": "GI50", "setting": "[32]", "value": 3.49, "unit": "µM"},
      {"measurement": "GI50", "setting": "[33]", "value": 8.77, "unit": "µM"},
      {"measurement": "GI50", "setting": "[34]", "value": 42.8, "unit": "µM"},
      {"measurement": "GI50", "setting": "[35]", "value": 1.96, "unit": "µM"},
      {"measurement": "GI50", "setting": "[36]", "value": 5.18, "unit": "µM"},
      {"measurement": "GI50", "setting": "[37]", "value": 23.8, "unit": "µM"},
      {"measurement": "GI50", "setting": "[38]", "value": 36.7, "unit": "µM"},
      {"measurement": "GI50", "setting": "[39]", "value": 5.9, "unit": "µM"},
      {"measurement": "GI50", "setting": "[40]", "value": 34.3, "unit": "µM"},
      {"measurement": "GI50", "setting": "[41]", "value": 27.7, "unit": "µM"},
      {"measurement": "GI50", "setting": "[42]", "value": 21.7, "unit": "µM"},
      {"measurement": "GI50", "setting": "[43]", "value": 7.21, "unit": "µM"},
      {"measurement": "GI50", "setting": "[44]", "value": 7.04, "unit": "µM"},
      {"measurement": "GI50", "setting": "[45]", "value": 34.1, "unit": "µM"},
      {"measurement": "GI50", "setting": "[46]", "value": 9.71, "unit": "µM"}
    ]}
  ]
}
